Laboratory results: patent US4294832A, “Tetrahydroisoquinoline compounds and a pharmaceutical composition thereof” (Tanabe Seiyaku Co., Ltd., priority 1979, dated 1981)
Several values for one entry are separate records, joined by “and”; a condition that tells them apart may be missing. Equal values may be shown once. Where a name gives a salt, the structure may show the parent alone. Read-outs that look alike come from different tables or passages of the source.

What was measured:
[1] = molecular target: T1, angiotensin-converting enzyme (ACE) isolated from pig's renal cortex (Sus scrofa, UniProt F1RRW5); assay: ACE-inhibitory activity in vitro (histidyl-leucine released from hippuryl-histidyl-leucine); format: biochemical
T1 construct: isolated from pig's renal cortex; from tissue; host or cells: pig renal cortex
T1 sequence (F1RRW5 34-1309): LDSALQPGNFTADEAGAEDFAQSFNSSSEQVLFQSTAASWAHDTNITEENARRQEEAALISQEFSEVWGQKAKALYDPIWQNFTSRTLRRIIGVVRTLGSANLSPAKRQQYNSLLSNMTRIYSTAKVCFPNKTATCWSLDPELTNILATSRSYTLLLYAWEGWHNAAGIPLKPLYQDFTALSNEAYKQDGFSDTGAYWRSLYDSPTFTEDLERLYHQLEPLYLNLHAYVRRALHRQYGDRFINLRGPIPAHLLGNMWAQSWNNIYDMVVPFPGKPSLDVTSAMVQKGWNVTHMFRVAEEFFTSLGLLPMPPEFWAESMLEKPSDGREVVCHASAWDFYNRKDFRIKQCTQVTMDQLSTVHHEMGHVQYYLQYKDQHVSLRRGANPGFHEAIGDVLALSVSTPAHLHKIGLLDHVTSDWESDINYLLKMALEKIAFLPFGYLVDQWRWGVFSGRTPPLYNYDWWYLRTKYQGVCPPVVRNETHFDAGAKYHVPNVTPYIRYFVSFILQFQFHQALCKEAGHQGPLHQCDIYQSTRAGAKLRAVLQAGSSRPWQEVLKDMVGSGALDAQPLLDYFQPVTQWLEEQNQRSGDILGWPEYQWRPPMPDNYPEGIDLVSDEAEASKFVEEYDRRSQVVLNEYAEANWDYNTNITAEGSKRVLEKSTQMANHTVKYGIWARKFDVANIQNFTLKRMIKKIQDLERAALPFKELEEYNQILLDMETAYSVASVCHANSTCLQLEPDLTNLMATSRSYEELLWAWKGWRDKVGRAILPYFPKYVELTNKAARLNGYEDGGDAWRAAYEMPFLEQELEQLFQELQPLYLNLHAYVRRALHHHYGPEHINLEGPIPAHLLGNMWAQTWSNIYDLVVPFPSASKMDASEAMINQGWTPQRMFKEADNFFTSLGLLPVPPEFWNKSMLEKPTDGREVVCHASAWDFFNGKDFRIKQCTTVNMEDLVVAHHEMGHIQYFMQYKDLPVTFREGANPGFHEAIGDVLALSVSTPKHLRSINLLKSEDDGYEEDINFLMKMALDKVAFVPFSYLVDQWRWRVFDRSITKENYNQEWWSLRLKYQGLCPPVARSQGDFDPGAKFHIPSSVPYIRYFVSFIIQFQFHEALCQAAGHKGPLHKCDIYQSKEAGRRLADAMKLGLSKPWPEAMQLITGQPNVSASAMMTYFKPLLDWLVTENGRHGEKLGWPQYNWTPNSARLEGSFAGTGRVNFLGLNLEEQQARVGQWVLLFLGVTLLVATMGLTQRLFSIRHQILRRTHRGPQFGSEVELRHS
Method: ACE-inhibitory activity in vitro:
50 μl of a solution containing 0.01 mole/liter of hippuryl-histidyl-leucine (substrate) and 0-100 μl of a test compound solution were added to 300 μl of a 0.2M trishydrochloric acid buffer solution containing 0.2 mole/liter of sodium chloride. The total volume of said mixture was adjusted to 450 μl with water. Then, 50 μl of angiotensin -converting enzyme (ACE) isolated from pig's renal cortex were added to the mixture, and the mixture was allowed to stand at 37° C. for 20 minutes. The amount of histidyl-leucine produced from the substrate by the action of ACE was assayed microbiologically by the use of Leuconostoc mesenteroides P-60, and the ACE-inhibitory activity of the test compound was estimated therefrom.
*I50 = a dose required to induce 50% inhibition of the ACE activity

[2] = system: spontaneously hypertensive rats (SHR); assay: Hypotensive activity in SHR (systolic blood pressure, tail plethysmographic technique); format: in vivo, rat; details: 50 mg/kg orally; for Decrease in blood pressure (-Δ mm Hg): SHR fasted overnight, systolic; for Duration of action: hypotensive action, SHR
Method: Hypotensive activity in SHR:
A test compound (dose: 50 mg/kg) suspended in an aqueous carboxymethylcellulose solution was administered orally to spontaneously hypertensive rats (SHR) fasted overnight. The systolic blood pressure of the rats was measured by the tail plethysmographic technique (The Journal of Laboratory and Clinical Medicine 78(1971), page 957). The hypotensive activity of the test compound was estimated from the decreased level of blood pressure.

[3] = system: angiotensin-converting enzyme (ACE); assay: ACE-inhibitory activity in vivo (pressor response to angiotensin I in anesthetized normotensive rats); parameters: species or system rat; details: 0.1 mg/kg i.v.; for Duration of activity: ACE inhibition in vivo; for ACE-inhibitory activity in vivo: percentage inhibition of ACE activity, angiotensin I 300 ng/kg i.v.
Method: ACE-inhibitory activity in vivo:
Normotensive rats weighing 300-400 g were anesthetized with urethane (1.5 g/kg, s.c.), and angiotensin I (300 ng/kg) was injected into the femoral vein of the rats. The pressor response to angiotensin I was measured with a pressure transducer connected to the carotid artery. Then, a test compound was injected intravenously thereto at a dose of 0.1 mg/kg, and angiotensin I (300 ng/kg) was further injected intravenously at intervals. The ACE-inhibitory activity of the test compound was estimated from the pressur responses to angiotensin I which were obtained before and after intravenous injection of the test compound.
*percentage inhibition of ACE activity in vivo

[4] = dose required to induce 50% inhibition of the ACE activity, pig renal cortex ACE, 37° C., 20 minutes, read-out: ACE-inhibitory activity in vitro I50

SMILES | IC50 [1, 4] [nM] | Duration of activity [3] [min] | ACE-inhibitory activity in vivo [3] | other results
C=CCN(CCC(=O)O)C(=O)N1Cc2ccccc2C[C@H]1C(=O)O [3(S)-2-[N-allyl-N-(2-carboxyethyl)carbamoyl]-1,2,3,4-tetrahydroisoquinoline-3-carboxylic acid di-L-lysine salt] | 140 | – | – | –
O=C(O)CCN(C(=O)N1Cc2ccccc2C[C@H]1C(=O)O)C1CC1 [3(S)-2-[N-cyclopropyl-N-(2-carboxyethyl)-carbamoyl]-1,2,3,4-tetrahydroisoquinoline-3-carboxylic acid di-dicyclohexylamine salt] | 140 | – | – | –
CCN(CCC(=O)O)C(=O)N1Cc2ccccc2C[C@H]1C(=O)O [3(S)-2-[N-ethyl-N-2-carboxyethyl)carbamoyl]-1,2,3,4-tetrahydroisoquinoline-3-carboxylic acid di-sodium salt] | 21 | – | – | –
CCN(CCC(=O)O)C(=O)N1Cc2ccccc2C[C@H]1C(=O)O [3(S)-2-[N-ethyl-N-(2-carboxyethyl)carbamoyl]-1,2,3,4-tetrahydroisoquinoline-3-carboxylic acid calcium salt] | 11 | – | – | IC50 ([1]; in vitro, ACE isolated from pig's kidney, read-out: 50% inhibition of the activity of the enzyme at a concentration of): ~11 nM
CCOC(=O)CCN(CC)C(=O)N1Cc2ccccc2C[C@H]1C(=O)O [3(S)-2-[N-ethyl-N-(2-ethoxycarbonylethyl)carbamoyl]-1,2,3,4-tetrahydroisoquinoline-3-carboxylic acid 1/2 calcium salt] | – | – | – | Decrease in blood pressure (-Δ mm Hg) [2]: 26 mm Hg; Duration of action [2]: > 6 h
CCOC(=O)CCN(CC)C(=O)N1Cc2ccccc2C[C@H]1C(=O)O [3(S)-2-[N-ethyl-N-(2-ethoxycarbonylethyl)carbamoyl]-1,2,3,4-tetrahydroisoquinoline-3-carboxylic acid L-lysine salt] | – | > 60 | > 60% | –
CCCCOC(=O)CCN(CC)C(=O)N1Cc2ccccc2C[C@H]1C(=O)O [3(S)-2-[N-ethyl-N-(2-n-butoxycarbonylethyl)carbamoyl]-1,2,3,4-tetrahydroisoquinoline-3-carboxylic acid L-lysine salt] | – | > 60 | – | ACE-inhibitory activity in vivo ([3]; 0.1 mg/kg): 80% and > 60%
CCOC(=O)CCN(CC)C(=O)N1Cc2ccccc2C[C@H]1C(=O)O.NCCCC[C@H](N)C(=O)O [3(S)-2-[N-ethyl-N-(2-n-ethoxycarbonylethyl)carbamoyl]-1,2,3,4-tetrahydroisoquinoline-3-carboxyleic acid L-lysine salt] | – | – | – | Decrease in blood pressure (-Δ mm Hg) [2]: 25 mm Hg; Duration of action [2]: > 6 h
CC(C)N(CCC(=O)O)C(=O)N1Cc2ccccc2C[C@H]1C(=O)O [3(S)-2-[N-isopropyl-N-(2-carboxyethyl)carbamonyl]-1,2,3,4-tetrahydroisoquinoline-3-carboxylic acid di-L-lysine salt] | 29 | – | – | –
CC(C)N(CCC(=O)O)C(=O)N1Cc2ccccc2C[C@H]1C(=O)O [3(S)-2-[N-isopropyl-N-(2-carboxyethyl)carbamoyl]-1,2,3,4-tetrahydroisoquinoline-3-carboxylic acid di-dicyclohexylamine salt] | – | > 60 | > 60% | –
CCOC(=O)CCN(C(=O)N1Cc2ccccc2C[C@H]1C(=O)O)C(C)C [3(S)-2-[N-isopropyl-N-(2-ethoxycarbonylethyl)carbamoyl]-1,2,3,4-tetrahydroisoquinoline-3-carboxylic acid L-lysine salt] | – | > 60 | > 60% | –
COC(=O)CCN(C(=O)N1Cc2ccccc2C[C@H]1C(=O)O)C(C)C [3(S)-2-[N-isopropyl-N-(2-methoxycarbonylethyl)carbamoyl]-1,2,3,4-tetrahydroisoquinoline-3-carboxylic acid L-lysine salt] | – | – | 40 - 60% | Duration of activity ([3]; 0.1 mg/kg): 30 to 60 min; Decrease in blood pressure (-Δ mm Hg) [2]: 36 mm Hg; Duration of action [2]: > 6 h
COC(=O)CCN(C(=O)N1Cc2ccccc2C[C@H]1C(=O)O)C(C)C [3(S)-2-[N-isopropyl-N-(2-methoxycarbonylethyl)carbamoyl]-1,2,3,4-tetrahydroisoquinoline-3-carboxylic acid sodium salt] | – | – | – | Duration of activity ([3]; sodium salt, 0.1 mg/kg): > 60 min
CCCCOC(=O)CCN(C(=O)N1Cc2ccccc2C[C@H]1C(=O)O)C(C)C [3(S)-2-[N-isopropyl-N-(2-n-butoxycarbonylethyl)carbamoyl]-1,2,3,4-tetrahydroisoquinoline-3-carboxylic acid L-lysine salt] | – | > 60 | > 60% | –
CN(CCC(=O)O)C(=O)N1Cc2ccccc2C[C@H]1C(=O)O [3(S)-2-[N-methyl-N-(2-carboxyethyl)carbamoyl]-1,2,3,4-tetrahydroisoquinoline-3-carboxylic acid 2 dicyclohexylamine salt] | 610 | – | – | –
CCOC(=O)CCN(C)C(=O)N1Cc2ccccc2C[C@H]1C(=O)O [3(S)-2-[N-methyl-N-(2-ethoxycarbonylethyl)carbamoyl]-1,2,3,4-tetrahydroisoquinoline-3-carboxylic acid L-lysine salt] | – | > 60 | 40 - 60% | –
CCCN(CCC(=O)O)C(=O)N1Cc2ccccc2C[C@H]1C(=O)O [3(S)-2-[N-n-propyl-N-(2-carboxyethyl)carbamoyl]-1,2,3,4-tetrahydroisoquinoline-3-carboxylic acid 2 dicyclohexylamine salt] | 550 | – | – | –
C#CCN(CCC(=O)O)C(=O)N1Cc2ccccc2C[C@H]1C(=O)O [3(S)-2-[N-propargyl-N -(2-carboxyethyl)carbamoyl]-1,2,3,4-tetrahydroisoquinoline-3-carboxylic acid di-L-lysine salt] | 35 | – | – | –
